Substitutions are numbered along the chain they refer to.
Key:
Test in all cases: HPLC forward-reaction glutamine synthetase assay with serine protease inhibitors
Type in all cases: biochemical, E. coli
[1] = biological target: T1, glutamine synthetase mutant S52A (Escherichia coli, UniProt P0A9C5, S53A); settings: 1 mM inhibitor; for inhibition of the enzyme (in words): HPLC assays; for % Reduction in ADP-based Specific Activity / % Reduction in Glutamine-based Specific Activity: 60 min pre-incubation, vs no-inhibitor control, positive = activity increased; for % Conversion: glutamine-based divided by ADP-based specific activity
T1 construct: made in house; host or cells: E. coli YMC11 (glutamine synthetase auxotroph), pBluescript II SK+
T1 sequence (P0A9C5 2-469 S53A limits assumed): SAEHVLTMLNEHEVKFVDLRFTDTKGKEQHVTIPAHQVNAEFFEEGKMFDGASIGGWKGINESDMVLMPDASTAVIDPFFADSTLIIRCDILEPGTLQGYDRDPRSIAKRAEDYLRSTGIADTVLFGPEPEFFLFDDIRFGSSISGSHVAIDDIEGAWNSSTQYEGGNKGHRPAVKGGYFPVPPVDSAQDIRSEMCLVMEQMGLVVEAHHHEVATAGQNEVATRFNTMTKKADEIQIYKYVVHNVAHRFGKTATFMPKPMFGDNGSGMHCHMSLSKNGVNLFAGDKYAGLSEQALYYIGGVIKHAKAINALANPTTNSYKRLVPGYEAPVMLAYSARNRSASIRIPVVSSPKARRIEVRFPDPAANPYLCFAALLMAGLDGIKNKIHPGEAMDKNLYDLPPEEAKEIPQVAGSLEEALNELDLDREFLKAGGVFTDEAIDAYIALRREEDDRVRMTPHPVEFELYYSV
Procedure: (§1) This assay was set up to measure glutamine synthetase activity according to the forward reaction, and measures the amount of glutamine formed from […] of L-glutamate in the presence of MnCO3-ATP (the basis of one reaction) and MgATP (the basis of a second reaction). In addition, the amount of ADP formed is also measured in a separate assay, using the same reagents.
(§2) All enzyme preparations were adjusted to the same concentration of protein, and added to the assay mixture in a volume of 50 μl. The addition of the enzyme started the reaction, which was then allowed to proceed for 1 hour. The reaction was stopped by the addition of 6 μl of a 50% solution of trichloroacetic acid. Each assay was then aliquoted into 4 HPLC vials (150 μl per vial), two of which were assayed for glutamate and glutamine using a Phenomenex Luna 5 μC18 Column on an Agilent 100 HPLC instrument. The ATP/ADP assays were run on a Chromolith Performance RP-18c column also using an Agilent 100 HPLC instrument.
(§3) As it is believed that two putative catalytic triads, similar to those in the serine proteases, are involved in the reaction mechanism of glutamine synthetase, certain of the mutants were also assayed by HPLC in the presence of the serine protease inhibitors, AEBSF and PMSF, in order to assess the effect that these inhibitors had on the enzyme. The enzymes assessed were the adenylylated WT enzyme, the deadenylylated WT enzyme, and the mutant enzymes S52A, S52A Y397V, S53A, S53A Y397V, S52A S53A and S52A S53A Y397V. The enzymes were pre-incubated for 60 minutes in the presence of 1 mM PMSF or 1 mM AEBSF. A control reaction was set up for each enzyme, which contained no inhibitor. Each enzyme was then added to assays set up as described above. The assay was allowed to proceed for 60 minutes, then stopped by the addition of […] of 50% TCA, after which they were analysed by HPLC. All assays were run in triplicate.
(§4) In addition to the γ-glutamyl transferase assays, assays were also developed to measure the rate of conversion of ATP and glutamate to ADP and glutamine by HPLC. These were set up as single assays but analysed separately for glutamate and glutamine and ATP and ADP. The conversion rates for glutamate to glutamine, in both the presence of Mn^2+ and Mg^2+ by glutamine synthetase, is referred to as the […] specific activity and is presented in μmoles/min/mg protein. The conversion rates for ATP to ADP, in both the presence of Mn^2+ and Mg^2+ by glutamine synthetase, is referred to as the ADP-based specific activity and is presented in μmoles/min/mg protein. The percentage of conversion was also calculated by dividing the glutamine-based specific activity by the ADP-based specific activity, and this value is interpreted as the ability of the enzyme to complete both steps of the reaction, i.e., glutamate to glutamine and ATP to ADP, at an equivalent level of efficiency.

[2] = biological target: T2, glutamine synthetase mutant S52A S53A Y397V (Escherichia coli, UniProt P0A9C5, S53A/S54A/Y398V); settings: 1 mM inhibitor; for inhibition of the enzyme (in words): HPLC assays; for % Reduction in ADP-based Specific Activity / % Reduction in Glutamine-based Specific Activity / % Conversion: Mn assay; for % Reduction in ADP-based Specific Activity / % Reduction in Glutamine-based Specific Activity: 60 min pre-incubation, vs no-inhibitor control; for % Reduction in Glutamine-based Specific Activity: positive = activity increased; for % Conversion: glutamine-based divided by ADP-based specific activity
T2 construct: made in house; host or cells: E. coli YMC11 (glutamine synthetase auxotroph), pBluescript II SK+
T2 sequence (P0A9C5 2-469 S53A/S54A/Y398V limits assumed): T1 sequence (P0A9C5 2-469 S53A limits assumed) with S53A, Y397V
Procedure: as §1, §2, §3, §4

[3] = biological target: T3, glutamine synthetase mutant Y397V (Escherichia coli, UniProt P0A9C5, Y398V); settings: 1 mM inhibitor; for inhibition of the enzyme (in words): HPLC assays; for % Conversion: glutamine-based divided by ADP-based specific activity
T3 construct: made in house; host or cells: E. coli YMC11 (glutamine synthetase auxotroph), pBluescript II SK+
T3 sequence (P0A9C5 2-469 Y398V limits assumed): T1 sequence (P0A9C5 2-469 S53A limits assumed) with A52S, Y397V

Row | SMILES | inhibition of the enzyme (in words) [1] | % Reduction in ADP-based Specific Activity ([1]; Mg assay) [%] | % Reduction in Glutamine-based Specific Activity ([1]; Mg assay) [%] | % Conversion ([1]; Mg assay) [%] | % Reduction in ADP-based Specific Activity ([1]; Mn assay) | % Reduction in Glutamine-based Specific Activity ([1]; Mn assay) | % Conversion ([1]; Mn assay) [%] | inhibition of the enzyme (in words) [2] | % Reduction in ADP-based Specific Activity [2] [%] | % Reduction in Glutamine-based Specific Activity [2] [%] | % Conversion [2] [%] | inhibition of the enzyme (in words) [3] | % Conversion ([3]; Mg assay) [%] | % Conversion ([3]; Mn assay) [%]
1 | NCCc1ccc(S(=O)(=O)F)cc1 [AEBSF] | appeared to cause inhibition | −31.77 | −10.61 | 109 | +30.66% | +15.27% | 81 | appeared to cause inhibition | −5.20 | −1.65 | 75 | appeared to cause inhibition | 107 | 108
2 | O=S(=O)(F)Cc1ccccc1 [PMSF] | found to inhibit | −19.51 | −43.54 | 59 | −13.41% | −39.84% | 64 | did not significantly inhibit | −4.83 | −18.20 | 62 | found to inhibit | 78 | 61

— patent US20100022584A1, “Modulation of Glutamine Synthetase Activity” (priority 2006, published 2010)
